Results published in patent US11241436B2, “Autophagy inducers for treatment of CNS conditions” (Northwestern University, priority 2017, dated 2022).

The compounds below were run on LC3 (assay: Promega Autophagy Assay System (HiBiT-tagged LC3 reporter, autophagy flux)). Settings: LC3 reporter signal; decrease = increased autophagy.
Type: cell-based
From the text: The Promega Augophagy Assay System uses LC3 to monitor the autophagy process. […] LgBiT is a […] recombinant protein derived from NanoLuc. When HiBiT associates with LgBiT, a strong luciferase activity is reconstituted. An increase in autophagy will accelerate the degradation of LC3 reporter which decreases the assay signal. In contrast, inhibition of autophagy causes the accumulation of LC3 which will increase the reporter levels and assay signal.

Compound	AC50 [µM]
COc1ccc(-c2c(-c3ccc(OC)cc3)n(Cc3ccccc3)c3ncn(C4CCOCC4)c(=N)c23)cc1	23.1
N=c1c2c(-c3ccccc3)cn(Cc3ccccc3)c2ncn1C1CCC(O)CC1 (stereo not shown)	16.4
N=c1c2c(-c3ccc4c(c3)OCO4)c(-c3ccc4c(c3)OCO4)n(Cc3ccccc3)c2ncn1C1CCOCC1	18.4
CN(C)CCCn1cnc2c(c(-c3ccccc3)c(-c3ccccc3)n2CCc2ccccc2)c1=N	32.6
N=c1c2c(-c3ccccc3)c(-c3ccccc3)n(Cc3ccc(OC(F)(F)F)cc3)c2ncn1[C@H]1CC[C@H](O)CC1	2.59
COc1ccc(-c2c(-c3ccc(OC)cc3)n(Cc3ccccc3)c3ncn([C@@H]4CCCC[C@H]4CO)c(=N)c23)cc1	20.6
COCCn1cnc2c(c(-c3ccccc3)cn2Cc2ccccc2)c1=N	11.6
CCOC(CCCn1cnc2c(c(-c3ccccc3)c(-c3ccccc3)n2CCc2ccccc2)c1=N)OCC	13
N=c1c2c(-c3ccccc3)c(-c3ccccc3)n(CC3CCCCC3)c2ncn1CC1CCOCC1	14.6
CO[C@H]1CC[C@H](n2cnc3c(c(-c4ccccc4)c(-c4ccccc4)n3CCc3ccccc3)c2=N)CC1	3.66
N=c1c2c(-c3ccccc3)c(-c3ccccc3)n(CC3CCCCC3)c2ncn1C[C@H]1CCCC[C@@H]1O	0.366
COc1ccc(Cn2c(-c3ccccc3)c(-c3ccccc3)c3c(=N)n(CC(OC)OC)cnc32)cc1	16.4
COc1ccc(CCn2cnc3c(c(-c4ccccc4)c(-c4ccccc4)n3Cc3ccccc3)c2=N)cc1OC	23.1
COc1ccc(CCn2cnc3c(c(-c4ccccc4)cn3Cc3ccccc3)c2=N)cc1OC	16.4
COC(Cn1cnc2c(c(-c3ccccc3)c(-c3ccccc3)n2Cc2ccccc2)c1=N)OC	0.231
N=c1c2c(-c3ccccc3)cn(Cc3ccc(Br)cc3)c2ncn1CCCCO	25.9
N=c1c2c(-c3ccccc3)c(-c3ccccc3)n(Cc3ccccc3)c2ncn1CCCN1CCN(c2ccccc2)CC1	29.1
CO[C@H]1CC[C@H](n2cnc3c(c(-c4ccccc4)c(-c4ccccc4)n3Cc3ccccc3)c2=N)CC1	2.91
CN(C)CCn1cnc2c(c(-c3ccccc3)c(-c3ccccc3)n2CCc2ccccc2)c1=N	5.17
N=c1c2c(-c3ccccc3)c(-c3ccccc3)n(Cc3ccccc3)c2ncn1C1CCN(Cc2ccccc2)CC1	29.1
COc1ccc(Cn2c(-c3ccccc3)c(-c3ccccc3)c3c(=N)n([C@H](C)[C@@H](O)c4ccccc4)cnc32)cc1	20.6
COc1ccc(Cn2c(-c3ccccc3)c(-c3ccccc3)c3c(=N)n(CCO)cnc32)cc1	2.59

Compound	AC50 [µM]
N=c1c2c(-c3ccccc3)c(-c3ccccc3)n(Cc3ccccc3)c2ncn1CC1COC1	8.2
N=c1c2c(-c3ccccc3)c(-c3ccccc3)n(Cc3ccccc3)c2ncn1CCC1CCC(O)CC1 (stereo not shown)	1.84
N=c1c2c(-c3ccccc3)c(-c3ccccc3)n(Cc3ccccc3)c2ncn1C[C@@H]1CCCC[C@H]1O	13
COC1CCC(n2cnc3c(c(-c4ccccc4)c(-c4ccccc4)n3Cc3ccc(OC(F)(F)F)cc3)c2=N)CC1 (stereo not shown)	2.91
COCCn1cnc2c(c(-c3ccccc3)c(-c3ccccc3)n2Cc2ccc(OC)cc2)c1=N	23.1
CCOC(CCCn1cnc2c(c(-c3ccccc3)c(-c3ccccc3)n2Cc2ccccc2)c1=N)OCC	20.6
N=c1c2c(-c3ccccc3)c(-c3ccccc3)n(Cc3ccccc3)c2ncn1CCN	13
COc1ccc(Cn2c(-c3ccccc3)c(-c3ccccc3)c3c(=N)n(CC4CCOCC4)cnc32)cc1	9.2
N=c1c2c(-c3ccccc3)c(-c3ccccc3)n(Cc3ccc(OC(F)(F)F)cc3)c2ncn1C1CCOCC1	9.2
CC[Si](CC)(CC)OCCCn1cnc2c(c(-c3ccccc3)cn2Cc2ccc(Br)cc2)c1=N	13
N=c1c2c(-c3ccccc3)c(-c3ccccc3)n(CCc3ccccc3)c2ncn1CC1CCOC1 (stereo not shown)	9.2
N=c1c2c(-c3ccccc3)c(-c3ccccc3)n(Cc3ccccc3)c2ncn1CC1CCCO1 (stereo not shown)	14.6
N=c1c2c(-c3ccccc3)c(-c3ccccc3)n(CCc3ccccc3)c2ncn1C[C@@H]1CCCC[C@H]1O	18.4
N=c1c2c(-c3ccccc3)c(-c3ccccc3)n(CCc3ccccc3)c2ncn1[C@H]1CC[C@H](O)CC1	1.16
N=c1c2c(-c3ccccc3)c(-c3ccccc3)n(Cc3ccc(OC(F)(F)F)cc3)c2ncn1CCCO	9.2
COCCn1cnc2c(c(-c3ccccc3)c(-c3ccccc3)n2Cc2ccccc2)c1=N	13
N=c1c2c(-c3ccccc3)c(-c3ccccc3)n(CCc3ccccc3)c2ncn1CC1CCCO1 (stereo not shown)	23.1
N=c1c2c(-c3ccccc3)c(-c3ccccc3)n(Cc3ccccc3)c2ncn1[C@@H]1CCCC[C@H]1O	3.26
N=c1c2c(-c3ccccc3)c(-c3ccccc3)n(CCc3ccccc3)c2ncn1[C@H](CO)Cc1ccccc1	20.6
Cc1c(C)n(Cc2ccccc2)c2ncn(C3CCOCC3)c(=N)c12	23.1
N=c1c2c(-c3ccccc3)c(-c3ccccc3)n(Cc3ccccc3)c2ncn1CCCCCO	10.3
N=c1c2c(-c3ccccc3)c(-c3ccccc3)n(CCc3ccccc3)c2ncn1[C@@H]1CCCC[C@H]1O	7.31

Compound	AC50 [µM]
N=c1c2c(-c3ccccc3)c(-c3ccccc3)n(CCc3ccccc3)c2ncn1CCCCCO	13
COc1ccc(-c2c(-c3ccc(OC)cc3)n(Cc3ccccc3)c3ncn([C@H]4CC[C@H](OC)CC4)c(=N)c23)cc1	13
N=c1c2c(-c3ccccc3)c(-c3ccccc3)n(Cc3ccccc3)c2ncn1CC1CCOCC1	10.3
N=c1c2c(-c3ccccc3)cn(Cc3ccccc3)c2ncn1C(CO)(CO)CO	29.1
COc1ccc(Cn2c(-c3ccccc3)c(-c3ccccc3)c3c(=N)n(CC4CCCO4)cnc32)cc1 (stereo not shown)	20.6
COc1ccc(Cn2c(-c3ccccc3)c(-c3ccccc3)c3c(=N)n(CCCO)cnc32)cc1	5.17
N=c1c2c(-c3ccccc3)c(-c3ccccc3)n(CCc3ccccc3)c2ncn1CCCO	4.61
CCOC(CCCn1cnc2c(c(-c3ccccc3)c(-c3ccccc3)n2Cc2ccc(OC)cc2)c1=N)OCC	20.6
N=c1c2c(-c3ccccc3)c(-c3ccccc3)n(Cc3ccccc3)c2ncn1[C@H]1CC[C@H](CO)CC1	9.2
C[C@H]([C@@H](O)c1ccccc1)n1cnc2c(c(-c3ccccc3)c(-c3ccccc3)n2Cc2ccccc2)c1=N	29.1
Cc1ccc(-c2c(C(=O)CCl)n(CCCO)c3ncnc(N)c23)cc1	23.1
N=c1c2c(-c3ccccc3)c(-c3ccccc3)n(Cc3ccccc3)c2ncn1[C@H](CO)Cc1ccccc1	23.1
N=c1c2c(-c3ccccc3)c(-c3ccccc3)n(CCc3ccccc3)c2ncn1CCO	4.61
N=c1c2c(-c3ccccc3)c(-c3ccccc3)n(CC3CC3)c2ncn1CC1CCOCC1	20.6
CN(C)CCCn1cnc2c(c(-c3ccccc3)c(-c3ccccc3)n2Cc2ccccc2)c1=N	29.1
N=c1c2c(-c3ccccc3)c(-c3ccccc3)n(Cc3ccccc3)c2ncn1Cc1ccc2c(c1)OCO2	16.4
N=c1c2c(-c3ccccc3)cn(Cc3ccc(Br)cc3)c2ncn1CCCN1CCN(c2ccccc2)CC1	16.4
N=c1c2c(-c3ccccc3)c(-c3ccccc3)n(Cc3ccccc3)c2ncn1CCCCO	11.6
N=c1c2c3c(n(CCc4ccccc4)c2ncn1C1CCOCC1)CCCC3	7.31
COc1ccc(Cn2c(-c3ccccc3)c(-c3ccccc3)c3c(=N)n(N4CCOCC4)cnc32)cc1	20.6
N=c1c2c3c(n(CCc4ccccc4)c2ncn1CCCO)CCCC3	18.4
N=c1c2c(-c3ccccc3)cn(Cc3ccccc3)c2ncn1Cc1ccco1	16.4

Compound	AC50 [µM]
N=c1c2c(-c3ccccc3)cn(Cc3ccccc3)c2ncn1[C@H](CO)Cc1ccccc1	25.9
N=c1c2c(-c3ccccc3)c(-c3ccccc3)n(Cc3ccccc3)c2ncn1C1CCOCC1	2.31
COc1ccc(Cn2c(-c3ccccc3)c(-c3ccccc3)c3c(=N)n(C4CCOCC4)cnc32)cc1	2.59
N=c1c2c(-c3ccccc3)c(-c3ccccc3)n(CC3CC3)c2ncn1CCCO	10.3
COc1ccc(Cn2c(-c3ccccc3)c(-c3ccccc3)c3c(=N)n(CCCCCO)cnc32)cc1	5.17
CN(C)CCn1cnc2c(c(-c3ccccc3)c(-c3ccccc3)n2Cc2ccccc2)c1=N	10.3
COc1ccc(-c2c(-c3ccc(OC)cc3)n(Cc3ccccc3)c3ncn(CC4CCOCC4)c(=N)c23)cc1	20.6
N=c1c2c(-c3ccccc3)c(-c3ccccc3)n(CCc3ccccc3)c2ncn1CC1CCOCC1	10.3
COc1ccc(-c2c(-c3ccc(OC)cc3)n(Cc3ccccc3)c3ncn(CCCO)c(=N)c23)cc1	20.6
Cc1ccc(-c2c(C(=O)CF)n(CCCO)c3ncnc(N)c23)cc1	20.6
N=c1c2c(-c3ccccc3)c(-c3ccccc3)n(CCc3ccccc3)c2ncn1CCCCO	10.3
COCCn1cnc2c(c(-c3ccccc3)c(-c3ccccc3)n2CCc2ccccc2)c1=N	20.6
N=c1c2c(-c3ccccc3)c(-c3ccccc3)n(CC3CCCCC3)c2ncn1[C@H]1CC[C@H](O)CC1	16.4
N=c1c2c(-c3ccccc3)c(-c3ccccc3)n(Cc3ccc(OC(F)(F)F)cc3)c2ncn1CC1CCOCC1	9.2
N=c1c2c(-c3ccccc3)cn(Cc3ccccc3)c2ncn1CCCN1CCN(c2ccccc2)CC1	23.1
N=c1c2c(-c3ccccc3)c(-c3ccccc3)n(CC3CC3)c2ncn1C1CCOCC1	7.31
COc1ccc(Cn2c(-c3ccccc3)c(-c3ccccc3)c3c(=N)n(CCCCO)cnc32)cc1	10.3
COc1ccc(Cn2c(-c3ccccc3)c(-c3ccccc3)c3c(=N)n([C@H]4CC[C@H](O)CC4)cnc32)cc1	1.64
N=c1c2c(-c3ccccc3)cn(Cc3ccccc3)c2ncn1[C@@H]1CCCC[C@H]1N	14.6
N=c1c2c(-c3ccccc3)c(-c3ccccc3)n(CCc3ccccc3)c2ncn1CCC1CCC(O)CC1 (stereo not shown)	3.66
COC(=O)c1cccc(Cn2cnc3c(c(-c4ccccc4)c(-c4ccccc4)n3CCc3ccccc3)c2=N)c1	13
N=c1c2c(-c3ccccc3)c(-c3ccccc3)n(Cc3ccccc3)c2ncn1CCO	5.8
